Measured values reported in patent US11911393B2, “Non-catalytic substrate-selective p38alpha-specific MAPK inhibitors with endothelial-stabilizing and anti-inflammatory activity, and methods of use thereof” (University of Maryland, Baltimore, priority 2016, dated 2024).

System: TNFα-induced gene expression in HMVECLs
Test: RNASeq of TNFα-induced gene expression
Type: cell-based, human
Details: 100 μM UM101, 10 μM SB203580

## C[S+]([O-])c1ccc(-c2nc(-c3ccncc3)c(-c3ccc(F)cc3)[nH]2)cc1 (stereo not shown) [SB203580, reference compound]
AC003092.1 (ENSG00000236453)
  bin (gene expression response pattern): 7
AC010642.2 (ENSG00000269794)
  bin (gene expression response pattern): 7
AC116366.6 (ENSG00000234290)
  bin (gene expression response pattern): 8
ADAP1 (ENSG00000105963)
  bin (gene expression response pattern): 7
ADM2 (ENSG00000128165)
  bin (gene expression response pattern): 7
ANKRD55 (ENSG00000164512)
  bin (gene expression response pattern): 8
APOBEC3G (ENSG00000239713)
  bin (gene expression response pattern): 7
APOL2 (ENSG00000128335)
  bin (gene expression response pattern): 7
APOL6 (ENSG00000221963)
  bin (gene expression response pattern): 7
BPGM (ENSG00000172331)
  bin (gene expression response pattern): 8
C1QTNF1 (ENSG00000173918)
  bin (gene expression response pattern): 7
C6orf58 (ENSG00000184530)
  bin (gene expression response pattern): 7
C8orf4 (ENSG00000176907)
  bin (gene expression response pattern): 8
C11orf88 (ENSG00000183644)
  bin (gene expression response pattern): 7
C15orf54 (ENSG00000175746)
  bin (gene expression response pattern): 8
CCL1 (ENSG00000108702)
  bin (gene expression response pattern): 7
CD40 (ENSG00000101017)
  bin (gene expression response pattern): 7
CD69 (ENSG00000110848)
  bin (gene expression response pattern): 8
CDON (ENSG00000064309)
  bin (gene expression response pattern): 7
CLEC2D (ENSG00000069493)
  bin (gene expression response pattern): 7
CSF2 (ENSG00000164400)
  bin (gene expression response pattern): 8
CTC-231O11.1 (ENSG00000253522)
  bin (gene expression response pattern): 7
CTD-2369P2.8 (ENSG00000267607)
  bin (gene expression response pattern): 7
CX3CL1 (ENSG00000006210)
  bin (gene expression response pattern): 7
DRD4 (ENSG00000069696)
  bin (gene expression response pattern): 7
EBI3 (ENSG00000105246)
  bin (gene expression response pattern): 8
EGLN3 (ENSG00000129521)
  bin (gene expression response pattern): 7
ENKUR (ENSG00000151023)
  bin (gene expression response pattern): 7
ERVFRD-1 (ENSG00000244476)
  bin (gene expression response pattern): 8
ETV3L (ENSG00000253831)
  bin (gene expression response pattern): 7
F2RL3 (ENSG00000127533)
  bin (gene expression response pattern): 8
FAM101A (ENSG00000178882)
  bin (gene expression response pattern): 8
GCH1 (ENSG00000131979)
  bin (gene expression response pattern): 7
GPR37L1 (ENSG00000170075)
  bin (gene expression response pattern): 7
GPR182 (ENSG00000166856)
  bin (gene expression response pattern): 7
HAND1 (ENSG00000113196)
  bin (gene expression response pattern): 8
HAS2 (ENSG00000170961)
  bin (gene expression response pattern): 8
HELZ2 (ENSG00000130589)
  bin (gene expression response pattern): 7
HEPACAM (ENSG00000165478)
  bin (gene expression response pattern): 8
HMVECLs, TNFα
  bin (gene expression response pattern): AC073850.6: 5
  bin (gene expression response pattern): AGPAT9: 5
  bin (gene expression response pattern): ARHGAP18: 5
  bin (gene expression response pattern): ARHGEF28: 5
  bin (gene expression response pattern): ARL11: 5
  bin (gene expression response pattern): BAMBI: 1
  bin (gene expression response pattern): BCL2L10: 5
  bin (gene expression response pattern): BMF: 5
  bin (gene expression response pattern): C2CD4B: 5
  bin (gene expression response pattern): C19orf35: 5
  bin (gene expression response pattern): CCL17: 3
  bin (gene expression response pattern): CD200: 3
  bin (gene expression response pattern): CD207: 3
  bin (gene expression response pattern): CELF2-AS1: 5
  bin (gene expression response pattern): CH25H: 5
  bin (gene expression response pattern): CTA-212A2.1: 3
  bin (gene expression response pattern): CTA-221G9.12: 5
  bin (gene expression response pattern): CTB-152G17.6: 5
  bin (gene expression response pattern): CXCL3: 5
  bin (gene expression response pattern): CXCL5: 3
  bin (gene expression response pattern): CXCL10: 3
  bin (gene expression response pattern): CXCL11: 3
  bin (gene expression response pattern): DLL4: 1
  bin (gene expression response pattern): ELOVL7: 3
  bin (gene expression response pattern): EPHX4: 5
  bin (gene expression response pattern): ETV1: 1
  bin (gene expression response pattern): EXOC3L4: 3
  bin (gene expression response pattern): FAM84A: 5
  bin (gene expression response pattern): FBX032: 5
  bin (gene expression response pattern): FHL2: 5
  bin (gene expression response pattern): FLRT3: 1
  bin (gene expression response pattern): FP236383.10: 4
  bin (gene expression response pattern): GBP1P1: 3
  bin (gene expression response pattern): GBP4: 3
  bin (gene expression response pattern): GFOD1: 5
  bin (gene expression response pattern): GPR68: 2
  bin (gene expression response pattern): GPR88: 3
  bin (gene expression response pattern): GRPEL2: 5
  bin (gene expression response pattern): HAS3: 3
  bin (gene expression response pattern): HEY1: 5
  bin (gene expression response pattern): HMSD: 5
  bin (gene expression response pattern): HRCT1: 5
  bin (gene expression response pattern): HTR1D: 5
  bin (gene expression response pattern): IBA57-AS1: 5
  bin (gene expression response pattern): ID1: 5
  bin (gene expression response pattern): IDO1: 3
  bin (gene expression response pattern): IL1B: 3
  bin (gene expression response pattern): INPP4B: 5
  bin (gene expression response pattern): JUNB: 5
  bin (gene expression response pattern): KCNJ12: 1
  bin (gene expression response pattern): KDM7A: 5
  bin (gene expression response pattern): KIAA1211L: 1
  bin (gene expression response pattern): KIT: 5
  bin (gene expression response pattern): KLF15: 5
  bin (gene expression response pattern): KSR2: 5
  bin (gene expression response pattern): LINC00677: 3
  bin (gene expression response pattern): LMCD1: 5
  bin (gene expression response pattern): LONRF3: 5
  bin (gene expression response pattern): LRFN1: 5
  bin (gene expression response pattern): LRFN5: 2
  bin (gene expression response pattern): LYL1: 5
